What was measured:
[1] = tested on: HepG2 human hepatocarcinoma cells; experiment: Tracing of [U^13C]-fructose analog metabolism in vitro by LC-MS; type: cell-based; settings: for metabolic fate / main ^13C-labelled cellular product / metabolism through the polyol pathway: 25 mM ^13C-labelled analog; for formation of glucose-6-phosphate: polyol pathway
Method: In order to characterize the structure-activity effect of fructose deoxyfluorination on metabolic flux, the metabolism of isotopically labelled [U^13C]-fructose, and [U^13C]-1-, [U^13C]-6-, and [U^13C]-4-FDF deoxyfluorinated fructose analogs was evaluated in vitro in HepG2 human hepatocarcinoma cells by mass spectrometry (FIGS. 3A-3G). HepG2 were chosen as a model cell line due to a recent report by Tee et al. outlining their propensity for fructolysis (Tee, S. S. et al., 2022). [U^13C]-1- and [U^13C]-6-FDF were synthesized according to previously published methods (Haradahira, T. et al., 1995; Wuest, M. et al., 2011), and [U^13C]-4-FDF was synthesized as described hereinabove (Scheme 3).
Tracing of [U^13C]-fructose metabolism in vitro. Human hepatocellular carcinoma cells (HepG2) were grown in Dulbecco's modified Eagle medium (DMEM) supplemented with 10% heat-inactivated fetal bovine serum (FBS) and 1% penicillin-streptomycin (P/S) until 80% confluent under cell culture conditions (37° C., 5% CO2, humidified), at which point they were passaged. Cells were passaged three times before being seeded in to a 6-well plate and grown until 80% confluent. Supplemented media was aspirated and replaced with lactated Ringer's buffer (LRB) alone or containing 25 mM [U^13C]-1-FDF, [U^13C]-4-FDF, or [U^13C]-6-FDF. Cells were incubated under cell culture conditions for 0, 15, 30, or 60 min. Following incubation, the plates were placed on ice and wells were aspirated. Wells were washed three times with ice-cold ammonium formate buffer (150 mM, pH 7.4) to remove unbound probe. A chilled (−20° C.) solution of 1:1 methanol:water was added to the wells and cells were scraped off of the wells into the solution. This solution was collected into bead-beater tubes containing 6 beads and stored at −80° C. until further analysis was performed.
Levels of fructose metabolites were assessed by liquid chromatography mass spectrometry (LC-MS). Sample temperature was maintained on ice or dry ice where possible, and all solvents were MS grade and pre-equilibrated to −20° C.
Metabolite extraction. Cell pellets were collected to a pre-chilled 2 mL tube containing 6 washed ceramic beads (1.4 mm). 380 μl of methanol:water (1:1) was added in the tube and kept in −80° C. until the day of metabolite extraction. On the day of extraction, samples were vortexed for 10 s and cell lysis was done by beating for 60 s at 2000 rpm (bead beating was done twice) after adding 220 μL of acetonitrile. Samples were then incubated with a 2:1 dichloromethane:water solution on ice for 10 minutes. The polar and non-polar phases were separated by centrifugation at 4000 g for 10 minutes at 1° C. The resulting upper phase, consisting of polar metabolites was dried with a refrigerated (−4° C.) centrivap concentrator (Labconco) and stored at −80° C. before LC-MS analyses.
LC-MS metabolite quantification. Samples to be injected in -ESI were re-suspended with 75% acetonitrile, cleared by centrifugation and run on an Agilent 6545B Q-TOF mass spectrometer equipped with a 1290 Infinity II ultra-high performance LC (Agilent Technologies). Continuous internal mass calibration was executed using signals from purine [12,000 full width at half maximum (FWHM) resolution] and hexakis (1H,1H,3H-tetrafluoropropoxy) phosphazine (24,000 FWHM resolution). All study samples were randomized before analysis and run using both high and low pH hydrophilic interaction chromatography (HILIC-Z) in negative ionization mode. HILIC separation was obtained using the Poroshell 120 HILIC-Z column (2.1 100 mm, […]; Agilent) and corresponding guard column. The chromatographic conditions and mass spectrometry acquisition parameters were as described elsewhere (Zhu, Z. et al., 2023). Metabolite identification was confirmed by exact mass, retention time and subsequent MS/MS fragmentation for where standards are available. For the fluoro-fructose labelled metabolites, exact mass and MS/MS was considered for metabolite confirmation. […]

[2] = Wuest, M. et al., 2018; cited from earlier work
concussed mouse brain = experiment: PET/CT imaging of mice after closed-head concussive impact; type: in vivo, Balb/C mice
Method: Arrowhead indicates approximate location and direction of concussive blow. Mice were either left without head impact (Naïve), or received a single closed-head impact vertically at bregma 48 hrs prior to imaging. […] Average images from 20-40 min after the commencement of the scan are shown.

[3] = tested on: heterotopic HepG2 xenograft mouse model; experiment: Comparative PET/CT biodistribution in heterotopic HepG2 xenograft mouse model; type: in vivo
Method: After the confirmation of cell uptake and intracellular trapping of [U^13C]4-FDF, and the successful production of the radiofluorinated analog, the biodistribution of [^18F]4-FDF was evaluated in a heterotopic HepG2 xenograft mouse model and compared to the biodistribution of [^18F]6-FDF and [^18F]FDG. PET/CT images shown are the summed images from 20-45 min after intravenous injection of (FIG. 4A) [^18F]4-FDF, (FIG. 4B) [^18F]6-FDF, or (FIG. 4C) [^18F]FDG. Sagittal, coronal, and maximum intensity projection (MIP) are shown, in addition to axial sections at the level of the brain, heart, liver/kidneys, and hips. […] Purple represents an increase in AUC and blue represents a decrease in AUC. The values are normalized fold-change in AUC.
Eight-week-old female nu/nu mice were inoculated with 10×10^6 HepG2 cells suspended in 50% Matrigel:DMEM subcutaneously under the left shoulder. Within 3-weeks of implantation, mice were imaged by PET/CT.
PET/CT Imaging. PET/CT imaging was carried out on a Bruker Si78PET/CT scanner with a 4-position hotel having adjustable isoflurane and respiratory monitoring for each position (Bruker USA). Tail veins were catheterized, and an anatomical CT was acquired over the whole of the mouse bodies using the “rat” settings. PET acquisition was started just prior to a bolus i.v. injection of approximately 200 μCi of radiotracer. Dynamic scans were acquired in list mode format over 45 min and sorted into 16×0.5-mm sinogram bins for image reconstruction (4×15 s, 4×60 s and 8×300 s). Iterative reconstruction was performed using 3D ordered-subsets expectation maximization (3D-OSEM) followed by fast maximum a posteriori (fastMAP) using Paravision 360 software v.3.4 (Bruker, USA). Four-mouse images were split into individual mice, and the bed was removed using PMOD v (Bruker, USA). VivoQuant v.2022 (InviCRO) was used for visualization of radioradiotracer uptake in tissues, to define the three-dimensional (3D) volumes of interest (VOI) and for 3D-visualisation to create volume rendering technique images. The count densities were averaged for all volumes of interest at each time point to obtain a time versus activity curve (TAC). Tumor and tissue TACs were normalized to injected dose, measured by a CRC-15 PET dose calibrator (Capintec, Inc., NJ, USA), and expressed as percentage injected dose per cubic centimeter of tissue (% ID/cc).

[4] = Image-based dosimetry using OLINDA software; type: in vivo; settings: all tissues, Balb/C mice, relative to [^18F]-2-fluoro-2-deoxyglucose
Method: Image-based dosimetry was evaluated in Balb/C mice (n=4) using OLINDA software. […] The bottom plot is a zoom of the y-axis from the top plot.

[5] = tested on: mouse model of systemic inflammation (LPS); experiment: [^18F]4-FDF PET/CT in LPS mouse model of systemic inflammation; type: in vivo
Method: In order to further investigate whether a fructolytic switch occurs in inflammatory neural and cardiac tissues, a mouse model of systemic inflammation was examined. [^18F]4-FDF PET/CT was performed on mice receiving vehicle (FIG. 5A) or bacterial cell wall LPS (FIG. 5B) 24 hr after injection. Sagittal, coronal, MIP, and axial sections of the brain, heart and muscle are shown. Time-activity curves (TAC) for brain (FIG. 5C), heart (FIG. 5D), and muscle (FIG. 5E) are shown for mice receiving vehicle (−LPS) or LPS (+LPS). Solid lines are the means and dotted lines are standard deviation. […] The plots show individual data points (circles), mean (long line) and s.d. (vertical line). * p<0.05 by ANOVA followed by Tukey's test.
Mice receiving saline vehicle (FIG. 5A) or intraperitoneal bacterial cell wall lipopolysaccharide (LPS), as previously described (FIG. 5B; Shrum, B. et al., 2014), were imaged by [^18F]4-FDF PET/CT 24 hr after injection. […] The low uptake of [^18F]4-FDF in healthy brain and heart contributed to an increased signal-to-noise ratio for the mapping of cardio- and neuroinflammation in tissues that are otherwise highly glycolytic and have high [^18F]FDG uptake in the absence of disease (FIG. 4C).
Eight-week-old male Balb/C mice received 5 mg/kg LPS through intraperitoneal injection 24-hr prior to planned PET/CT imaging. Mice were supported by being warmed, and by being given fluids subcutaneously 12 hr after LPS injection. The mice were monitored and scored for severity of response to LPS as described previously (Shrum, B. et al., 2014).
PET/CT Imaging. PET/CT imaging was carried out on a Bruker Si78PET/CT scanner with a 4-position hotel having adjustable isoflurane and respiratory monitoring for each position (Bruker USA). Tail veins were catheterized, and an anatomical CT was acquired over the whole of the mouse bodies using the “rat” settings. […] Tumor and tissue TACs were normalized to injected dose, measured by a CRC-15 PET dose calibrator (Capintec, Inc., NJ, USA), and expressed as percentage injected dose per cubic centimeter of tissue (% ID/cc).

[6] = Time-course PET/CT biodistribution and TACs in fed or fasted mice; settings: Balb/C mice freely fed or overnight fasted, ~7.4 MBq i.v., 60 min PET/CT
Method: Animals received ˜7.4 MBq i.v. immediately upon the initiation of image acquisition, which continued for 60 min. The dynamic scan was binned according to the times indicated.
Solid line=mean; Shaded region=standard deviation. Regions of interest were drawn over the tissues of interest, and the activity within that region of interest of known volume were plotted over the timecourse of the 60 min PET/CT acquisition.

[7] = HepG2 xenograft mice, intravenous injection, PET/CT
[8] = 5 mg/kg LPS i.p., imaged 24 hr after injection, vs vehicle
[9] = healthy brain and heart, PET/CT

O=C(CF)[C@@H](O)[C@H](O)[C@H](O)CO [[U^13C]-1-FDF, [U^13C]-1-fluoro-1-deoxyfructose]
metabolic fate / main ^13C-labelled cellular product ([1]; mass spectrometry): majority of the ^13C-labelled cellular product being [U^13C]-deoxyfluorolactate
metabolism through the polyol pathway ([1]; mass spectrometry): limited metabolism through the polyol pathway
metabolic trapping in the cell ([1]; mass spectrometry): neither [U^13C]-1- (FIG. 3E) nor [U^13C]-6-FDF are metabolically trapped

O=C(CO)[C@@H](O)[C@H](F)[C@H](O)CO [[U^13C]-4-FDF, [U^13C]-4-fluoro-4-deoxyfructose]
metabolic fate / main ^13C-labelled cellular product ([1]; mass spectrometry): metabolism halted at [U^13C]-4-fluorodeoxy-1-phosphate
metabolism through the polyol pathway ([1]; mass spectrometry): capable of proceeding through the polyol pathway
accumulation of fluorodeoxyfructose-1,6-bisphosphate ([1]; mass spectrometry): accumulation of [U^13C]-4-fluorodeoxyfructose-1,6-bisphophate
metabolic trapping in the cell ([1]; mass spectrometry): unique ability to be trapped within cells
time course of metabolite generation ([1]; over 60 min of incubation): steady-state accumulation of [U^13C]-4-fluorodeoxyfructose-1-phosphate and [U^13C]-4-fluorodeoxyfructose-1,6-bisphosphate, and increase in [U^13C]-4-fluorodeoxysorbitol
formation of glucose-6-phosphate [1]: did not form detectable amounts of glucose-6-phosphate

O=C(CO)[C@@H](O)[C@H](O)[C@H](O)CF [[U^13C]-6-FDF, [U^13C]-6-fluoro-6-deoxyfructose]
metabolic fate / main ^13C-labelled cellular product ([1]; mass spectrometry): substantial amount of [U^13C]-deoxyfluorolactate production
metabolism through the polyol pathway ([1]; mass spectrometry): capable of proceeding through the polyol pathway
metabolic trapping in the cell ([1]; mass spectrometry): neither [U^13C]-1- (FIG. 3E) nor [U^13C]-6-FDF are metabolically trapped
formation of glucose-6-phosphate [1]: did not form detectable amounts of glucose-6-phosphate

O=[13C]([13CH2]O)[13C@@H](O)[13C@H](O)[13C@H](O)[13CH2]O [[U^13C]-fructose]
metabolic fate / main ^13C-labelled cellular product ([1]; mass spectrometry): metabolized as expected through both fructolytic and polyol pathways

O=C(CF)[C@@H](O)[C@H](O)[C@H](O)CO [[^18F]1-FDF, 1-deoxy-1-fluoro-fructose]
retention in cells in vitro and in vivo [2]: poorly retained in cells in vitro and in vivo

OC[C@H]1OC(O)(CO)[C@@H](O)[C@@H]1[18F] (stereo partly shown) [[^18F]4-FDF, [^18F]-4-fluoro-4-deoxyfructose]
retention in naïve brain (concussed mouse brain; naïve Balb/C mice, average images 20-40 min): limited retention
brain retention following concussion (concussed mouse brain; single closed-head impact at bregma 48 h prior to imaging, images 20-40 min): enhanced radiotracer retention
bone uptake ([3]; HepG2 xenograft mice, PET/CT): < 2 % ID/g
excretion route [3, 7]: renal exceeding hepatobiliary excretion
tumor accumulation / pattern of radiotracer retention [3, 7]: accumulate in the tumor
accumulation in normal mouse tissues ([3]; PET/CT, compared with [^18F]FDG): lower than that observed with [^18F]FDG
organ dose deposition [4]: less than or equal to the dose deposition for [^18F]-2-fluoro-2-deoxyglucose
brain uptake following LPS treatment [5, 8]: significant increase
cardiac uptake following LPS treatment [5, 8]: significant increase
uptake in healthy brain and heart [5, 9]: low uptake

O=C(CO)[C@@H](O)[C@H](O)[C@H](O)C[18F] [[^18F]6-FDF, [^18F]-6-fluoro-6-deoxyfructose]
bone uptake ([3]; HepG2 xenograft mice, PET/CT): > 7 % ID/g
bone uptake over time ([3]; HepG2 xenograft mice, TAC): continued to increase overtime
tumor accumulation / pattern of radiotracer retention [3, 7]: similarly observed
bone uptake, fold higher than [^18F]4-FDF ([3]; HepG2 xenograft mice, normalized to [^18F]4-FDF): 3.69 fold

O=C(CO)[C@@H](O)[C@@H]([18F])[C@H](O)CO [[^18F]-4-fluoro-4-deoxytagatose]
bone uptake [6]: significant bone uptake that is retained overtime
route of clearance [6]: main route of clearance is the kidney

[^18F]-2-fluoro-2-deoxy-D-glucose [[^18F]FDG]
area under the time activity curve (AUC) in brain, fold greater than [^18F]4-FDF ([3]; brain, normalized to AUC of [^18F]4-FDF): 6.01 fold
uptake in brain and heart in the absence of disease [3, 9]: high
area under the time activity curve (AUC) in heart, fold greater than [^18F]4-FDF ([3]; heart, normalized to AUC of [^18F]4-FDF): 5.29 fold

Reference: patent publication US20260131033A1, “RADIOLABELED FRUCTOSE DERIVATIVES FOR MEDICAL IMAGING” (Yellowbird Diagnostics Inc., priority 2023, published 2026)
